This passage reports IC50 results from patent publication US20230203029A1 (priority 2020, published 2023).

Molecules are shown by their SMILES. Where two headings read alike, the source gives them in different places.

Assay [1] deals with T1, Ba/F3 Pro B-cell line expressing TEL-human MERTK fusion domain (Homo sapiens, UniProt Q12866).
T1 sequence (Q12866 587-858 limits assumed): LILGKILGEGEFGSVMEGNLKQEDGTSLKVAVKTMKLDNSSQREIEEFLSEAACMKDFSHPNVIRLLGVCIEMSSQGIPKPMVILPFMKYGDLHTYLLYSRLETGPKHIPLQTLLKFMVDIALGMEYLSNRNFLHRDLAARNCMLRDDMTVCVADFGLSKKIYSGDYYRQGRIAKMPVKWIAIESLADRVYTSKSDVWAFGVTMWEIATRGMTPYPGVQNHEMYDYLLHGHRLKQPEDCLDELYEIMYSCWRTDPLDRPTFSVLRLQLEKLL
The format is cell-based. Put shortly: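 Ba/F3 cells dependent on BCR-AXL or TEL-MERTK fusion kinase (IL3-free; IL3 only for control lines) treated with compound 48 h at 37 °C, 0.25% DMSO. Viability by CellTiter-Glo luminescence; IC50 for half-maximal inhibition of survival from 4-parameter variable-slope fit.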

The target in assay [2] is T2, Ba/F3 Pro B-cell line expressing BCR-human AXL kinase domain fusion protein (Homo sapiens, UniProt P30530).
T2 construct: P11274 (Breakpoint cluster region protein)
T2 sequence (P30530 536-807 limits assumed): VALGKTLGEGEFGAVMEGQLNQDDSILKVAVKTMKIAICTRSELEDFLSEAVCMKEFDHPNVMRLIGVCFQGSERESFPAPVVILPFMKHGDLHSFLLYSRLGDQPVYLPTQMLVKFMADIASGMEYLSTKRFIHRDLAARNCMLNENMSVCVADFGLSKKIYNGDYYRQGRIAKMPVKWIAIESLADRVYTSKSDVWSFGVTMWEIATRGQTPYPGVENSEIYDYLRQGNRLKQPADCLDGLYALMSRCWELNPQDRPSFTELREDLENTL
Description: Assay 5 Ba/F3 cell survival assay, BCR-Axl. The format is cell-based. As to conditions: read-out: BCR-Axl Ba/F3 IC50, 48 h, CellTiter-Glo. On the procedure:
Assay 5—Ba/F3 Cell Survival Assays.
The inhibitory potencies of compounds were assessed in a Ba/F3 cell survival assay, using the Ba/F3 Pro B-cell line, recombinantly expressing a BCR-human AXL kinase domain fusion protein (pACD320/AXL, Advanced Cellular Dynamics Inc), TEL-human MERTK fusion domain (pACD1000/MERTK, Advanced Cellular Dynamics Inc), TEL-human Tyro3 fusion domain (pACD1000/TYRO3, Advanced Cellular Dynamics Inc), or control TEL-none (ACD320, Advanced Cellular Dynamics Inc) BRC-none constructs (ACD1000, Advanced Cellular Dynamics Inc). 10 ng/mL recombinant murine IL3 (R&D, 403-ML-010) was included in the media when propagating negative control TEL-none or BCR-none lines only. […] The final assay DMSO concentration was 0.25%. Compound incubations were conducted for 48 h at 37° C./5% CO2, after which cell plate was equilibrated at room temperature for 20 minutes prior to assessing viability. 15 μl of Promega CellTiter-Glo reagent (G7572) was added to each well for 2 min on an orbital shaker to induce cell lysis.
The plate was then equilibrated for 5 min at room temperature and luminescence read on a BMG Pherastar FSX using the LUM plus optic module. […] Competition curves were then fit to a 4 parameter logistic equation including a variable slope factor to determine the IC50 (compound concentration causing a half-maximal inhibition of cell survival).
A general note: ATP-based viability assays read luminescence as a measure of living cells.

Assay [3] addresses T3, Ba/F3 Pro B-cell line expressing TEL-human Tyro3 fusion domain (Homo sapiens, UniProt Q06418).
T3 sequence (Q06418 518-790 limits assumed): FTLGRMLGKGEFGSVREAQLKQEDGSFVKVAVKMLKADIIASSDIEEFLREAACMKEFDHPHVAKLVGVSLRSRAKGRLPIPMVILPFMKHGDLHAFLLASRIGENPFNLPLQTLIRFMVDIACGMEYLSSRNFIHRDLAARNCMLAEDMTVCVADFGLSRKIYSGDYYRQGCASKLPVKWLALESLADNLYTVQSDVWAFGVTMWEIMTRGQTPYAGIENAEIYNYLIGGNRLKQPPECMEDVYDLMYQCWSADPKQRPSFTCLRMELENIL
The class given is cell-based. As to conditions: cell survival, 48 h, CellTiter-Glo.

The target in assay [4] is T4, human AXL cytoplasmic domain (Homo sapiens, UniProt P30530).
T4 construct: human AXL cytoplasmic domain (Thermo Fisher A31515); purchased Thermo Fisher A31515
T4 sequence (P30530 473-894 limits assumed): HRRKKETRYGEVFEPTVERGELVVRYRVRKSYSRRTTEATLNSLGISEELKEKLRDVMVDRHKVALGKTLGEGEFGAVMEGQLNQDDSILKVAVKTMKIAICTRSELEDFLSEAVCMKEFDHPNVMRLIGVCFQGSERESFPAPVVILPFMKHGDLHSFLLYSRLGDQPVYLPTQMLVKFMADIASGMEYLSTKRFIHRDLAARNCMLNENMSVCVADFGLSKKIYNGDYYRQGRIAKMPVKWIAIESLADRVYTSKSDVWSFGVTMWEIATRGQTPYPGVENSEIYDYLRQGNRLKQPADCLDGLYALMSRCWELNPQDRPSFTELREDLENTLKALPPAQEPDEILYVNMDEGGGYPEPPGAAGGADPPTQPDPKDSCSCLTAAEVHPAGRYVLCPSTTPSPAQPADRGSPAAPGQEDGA
Kind of assay: Assay 1b AXL HTRF KinEASE-TK assay. The class given is biochemical. Put shortly:
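Recombinant cytoplasmic domain (5 nM) in kinase buffer with 5 mM MgCl2, 1 mM MnCl2, 1 mM DTT, 50 nM SEB plus test compounds; reaction 30 min at room temperature. EDTA-containing detection with TK antibody-cryptate/streptavidin-XL665 for 60 min; HTRF 665/620 ratio read. IC50 from 4-parameter logistic fit with variable slope.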
In general terms: In TR-FRET formats the signal depends on donor and acceptor labels being close together.

Assay [5] has as its target T5, human MERTK cytoplasmic domain (Homo sapiens, UniProt Q12866).
T5 construct: human MERTK cytoplasmic domain (Carna Biosciences 08-108); purchased Carna Biosciences 08-108
Description: biochemical. As to the method: Assay 1a—MERTK HTRF KinEASE-TK Assay
The enzymatic reaction was carried out for 30 min at room temperature. 10 μL TK Antibody-Cryptate/Streptavidin-XL665 (Cisbio 610SAXLG) was then added for 60 min, including EDTA containing detection buffer (Cisbio 62SDBRDF) to stop the reaction.

Setting [6] is: cell survival, 48 h, CellTiter-Glo; read-out: TEL-MERTK Ba/F3 IC50.
Where [7] appears, read: 30 uM ATP, read-out: Assay 1a Mer IC50 30 uM ATP.
[8] abbreviates: read-out: TEL-MERTK Ba/F3 IC50; cell survival, 48 h, CellTiter-Glo.

T5 sequence (Q12866 527-999): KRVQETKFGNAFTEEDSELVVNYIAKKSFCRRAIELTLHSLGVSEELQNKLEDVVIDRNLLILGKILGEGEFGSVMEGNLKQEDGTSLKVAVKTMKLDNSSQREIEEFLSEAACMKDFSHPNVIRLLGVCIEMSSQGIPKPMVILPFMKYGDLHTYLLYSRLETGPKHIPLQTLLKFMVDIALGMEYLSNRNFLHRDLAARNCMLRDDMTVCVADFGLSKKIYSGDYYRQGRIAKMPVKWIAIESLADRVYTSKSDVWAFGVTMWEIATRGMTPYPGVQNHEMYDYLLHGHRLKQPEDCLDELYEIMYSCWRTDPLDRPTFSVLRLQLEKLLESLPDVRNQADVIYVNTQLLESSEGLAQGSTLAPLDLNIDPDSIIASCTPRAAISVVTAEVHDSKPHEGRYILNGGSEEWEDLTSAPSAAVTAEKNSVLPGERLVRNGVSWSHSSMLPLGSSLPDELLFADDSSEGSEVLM

For the compound `O=C(Nc1ccc(Oc2ccnc3cnc(C4=CCN(C5COC5)CC4)cc23)cn1)c1cccn(-c2ccc(F)cc2)c1=O` [Example 16.2, 1-(4-fluorophenyl)-N-[5-[[6-[1-(oxetan-3-yl)-3,6-dihydro-2H-pyridin-4-yl]-1,7-naphthyridin-4-yl]oxy]-2-pyridyl]-2-oxo-pyridine-3-carboxamide], the IC50 in assay [1] (setting [6]) came out at 14 nM; in assay [2] it was 15 nM; in assay [3] it was 144 nM; in assay [4], 18 nM; in assay [5] (setting [7]) it was 3 nM.
On the same counts, the results for `CC(C)(C)OC(=O)N1CCC(c2cc3c(Oc4ccc(NC(=O)c5cccn(-c6ccc(F)cc6)c5=O)nc4)ccnc3cn2)CC1` [Example 16.4, tert-butyl 4-[4-[[6-[[1-(4-fluorophenyl)-2-oxo-pyridine-3-carbonyl]amino]-3-pyridyl]oxy]-1,7-naphthyridin-6-yl]piperidine-1-carboxylate] are 195 nM, 154 nM, above 2500 nM, 282 nM and 13 nM.
In the case of `CN1CCC(c2cc3c(Oc4ccc(NC(=O)c5cccn(-c6ccc(F)cc6)c5=O)cc4)ccnc3cn2)CC1` [Example 17, 1-(4-fluorophenyl)-N-[4-[[6-(1-methyl-4-piperidyl)-1,7-naphthyridin-4-yl]oxy]phenyl]-2-oxo-pyridine-3-carboxamide], the IC50 is 25 nM in assay [1] (setting [6]); 31 nM in assay [2]; 186 nM in assay [3]; 240 nM in assay [4]; 4 nM in assay [5] (setting [7]).
Regarding `CC(C)n1cc(C(=O)Nc2ccc(Oc3ccnc4cnc(N5CCN(C6COC6)CC5)cc34)cn2)c(=O)n(-c2ccc(F)cc2)c1=O` [Example 20.1, 3-(4-fluorophenyl)-1-isopropyl-N-[5-[[6-[4-(oxetan-3-yl)piperazin-1-yl]-1,7-naphthyridin-4-yl]oxy]-2-pyridyl]-2,4-dioxo-pyrimidine-5-carboxamide], the IC50 in assay [1] (setting [8]) was determined as 27 nM; in assay [2], 15 nM; in assay [3], 452 nM; in assay [4], 5 nM; in assay [5], 5 nM.
`CC(C)n1cc(C(=O)Nc2ccc(Oc3ccnc4cnc(N5CCN(C6COC6)CC5)cc34)cn2)c(=O)c(-c2ccc(F)cc2)c1` [Example 20.2, 5-(4-fluorophenyl)-1-isopropyl-N-[5-[[6-[4-(oxetan-3-yl)piperazin-1-yl]-1,7-naphthyridin-4-yl]oxy]-2-pyridyl]-4-oxo-pyridine-3-carboxamide]: the IC50 in assay [1] (setting [6]) worked out at 5 nM; in assay [2] it was 2 nM; in assay [3], 220 nM; in assay [4], 7 nM; in assay [5] (setting [7]), 1 nM.
For `O=C(Nc1ccc(Oc2ccnc3cnc(C4CCNC4)cc23)cn1)c1cccn(-c2ccc(F)cc2)c1=O` (stereo not shown) [Example 21, 1-(4-fluorophenyl)-2-oxo-N-[5-[(6-pyrrolidin-3-yl-1,7-naphthyridin-4-yl)oxy]-2-pyridyl]pyridine-3-carboxamide] the same measures were 217 nM, 203 nM, 2390 nM, 247 nM and 57 nM.
On the same counts, the results for `O=C(Nc1ccc(Oc2ccnc3cnc(C4CCNCC4)cc23)cn1)c1cccn(-c2ccc(F)cc2)c1=O` [Example 21.1, 1-(4-fluorophenyl)-2-oxo-N-[5-[[6-(4-piperidyl)-1,7-naphthyridin-4-yl]oxy]-2-pyridyl]pyridine-3-carboxamide] are 35 nM, 46 nM, 861 nM, 46 nM and 9 nM.
On to `CC(C)C(=O)N1CCC(c2cc3c(Oc4ccc(NC(=O)c5cccn(-c6ccc(F)cc6)c5=O)nc4)ccnc3cn2)CC1` [Example 22, 1-(4-fluorophenyl)-N-[5-[[6-[1-(2-methylpropanoyl)-4-piperidyl]-1,7-naphthyridin-4-yl]oxy]-2-pyridyl]-2-oxo-pyridine-3-carboxamide], for which the IC50 is 10 nM in assay [1] (setting [8]); 10 nM in assay [2]; above 2500 nM in assay [3]; 5 nM in assay [4]; 1 nM in assay [5].
For `CN1CCC(Oc2cc3c(Oc4ccc(NC(=O)c5cccn(-c6ccc(F)cc6)c5=O)nc4)ccnc3cn2)CC1` [Example 24, 1-(4-fluorophenyl)-N-[5-[[6-[(1-methyl-4-piperidyl)oxy]-1,7-naphthyridin-4-yl]oxy]-2-pyridyl]-2-oxo-pyridine-3-carboxamide], the IC50 was found to be 6 nM in assay [1] (setting [8]); 6 nM in assay [2]; 37 nM in assay [3]; 21 nM in assay [4]; 6 nM in assay [5].
With `Cc1cc(NC(=O)c2cccn(-c3ccc(F)cc3)c2=O)ncc1Oc1ccnc2cnc(C(=O)NC3CCN(C)CC3)cc12` [Example 25, 4-[[6-[[1-(4-fluorophenyl)-2-oxo-pyridine-3-carbonyl]amino]-4-methyl-3-pyridyl]oxy]-N-(1-methyl-4-piperidyl)-1,7-naphthyridine-6-carboxamide], the IC50 in assay [1] (setting [6]) amounted to 54 nM; in assay [2], 27 nM; in assay [3], 91 nM; in assay [4], 76 nM; in assay [5] (setting [7]), 29 nM.
On the same counts, the results for `Cc1nc(NC(=O)c2cccn(-c3ccc(F)cc3)c2=O)ccc1Oc1ccnc2cnc(C(=O)NC3CCN(C)CC3)cc12` [Example 26, 4-[[6-[[1-(4-fluorophenyl)-2-oxo-pyridine-3-carbonyl]amino]-2-methyl-3-pyridyl]oxy]-N-(1-methyl-4-piperidyl)-1,7-naphthyridine-6-carboxamide] are 55 nM, 83 nM, 1420 nM, 360 nM and 19 nM.
